Results as given in US9914731B2, “Pyrazolo[1,5-a]pyridine derivatives and methods of their use” (Ignyta, Inc., priority 2013, dated 2018).

What was measured:
[1] = target: recombinant human baculovirus-expressed AXL (Homo sapiens (Human), UniProt P30530); test: AXL kinase assay (HTRF KinEASE); type: biochemical; conditions: average of two or more determinations
[2] = target: recombinant human baculovirus-expressed cMET (Homo sapiens (Human), UniProt P08581); test: c-MET kinase assay (HTRF KinEASE); type: biochemical; conditions: average of two or more determinations; read-out: c-MET IC50

Compound	IC50 [1]	IC50 [2]
1-Ethyl-3-(4-fluoro-phenyl)-2,4-dioxo-1,2,3,4-tetrahydro-pyrimidine-5-carboxylic acid {3-fluoro-4-[6-(1H-pyrazol-3-yl)-pyrazolo[1,5-a]pyridin-4-yloxy]-phenyl}-amide [Example 40]	< 10 nM	< 10 nM
O=C(Nc1ccc(Oc2cc(-c3cccnc3)cn3nccc23)c(F)c1)c1cccn(-c2ccc(F)cc2)c1=O [Example 25, 1-(4-Fluoro-phenyl)-2-oxo-1,2-dihydro-pyridine-3-carboxylic acid 3-fluoro-4-(6-pyridin-3-yl-pyrazolo[1,5-a]pyridin-4-yloxy)-phenyl-amide]	< 10 nM	< 10 nM
O=C(Nc1ccc(Oc2cc(-c3ccc(N4CCOCC4)nc3)cn3nccc23)c(F)c1)c1cccn(-c2ccc(F)cc2)c1=O [Example 26, 1-(4-Fluoro-phenyl)-2-oxo-1,2-dihydro-pyridine-3-carboxylic acid {3-fluoro-4-[6-(6-morpholin-4-yl-pyridin-3-yl)-pyrazolo[1,5-a]pyridin-4-yloxy]-phenyl}-amide]	< 10 nM	< 10 nM
O=C(Nc1ccc(Oc2cc(-c3ccncc3)cn3nccc23)c(F)c1)c1cccn(-c2ccc(F)cc2)c1=O [Example 27, 1-(4-Fluoro-phenyl)-2-oxo-1,2-dihydro-pyridine-3-carboxylic acid [3-fluoro-4-(6-pyridin-4-yl-pyrazolo[1,5-a]pyridin-4-yloxy)-phenyl]-amide]	< 10 nM	< 10 nM
Cn1cc(-c2cc(Oc3ccc(NC(=O)c4cccn(-c5ccc(F)cc5)c4=O)cc3F)c3ccnn3c2)cn1 [Example 29, 1-(4-Fluoro-phenyl)-2-oxo-1,2-dihydro-pyridine-3-carboxylic acid {3-fluoro-4-[6-(1-methyl-1H-pyrazol-4-yl)-pyrazolo[1,5-a]pyridin-4-yloxy]-phenyl}-amide]	< 10 nM	< 10 nM
Cn1cc(-c2cc(Oc3ccc(NC(=O)c4c[nH]c(=O)n(-c5ccc(F)cc5)c4=O)cc3F)c3ccnn3c2)cn1 [Example 30, 3-(4-Fluoro-phenyl)-2,4-dioxo-1,2,3,4-tetrahydro-pyrimidine-5-carboxylic acid {3-fluoro-4-[6-(1-methyl-1H-pyrazol-4-yl)-pyrazolo[1,5-a]pyridin-4-yloxy]-phenyl}-amide]	< 10 nM	< 10 nM
CCOCCn1cc(C(=O)Nc2ccc(Oc3cc(-c4cnn(C)c4)cn4nccc34)c(F)c2)c(=O)n(-c2ccc(F)cc2)c1=O [Example 31, 1-(2-Ethoxy-ethyl)-3-(4-fluoro-phenyl)-2,4-dioxo-1,2,3,4-tetrahydro-pyrimidine-5-carboxylic acid {3-fluoro-4-[6-(1-methyl-1H-pyrazol-4-yl)-pyrazolo[1,5-a]pyridin-4-yloxy]-phenyl}-amide]	< 10 nM	< 10 nM
CCn1cc(C(=O)Nc2ccc(Oc3cc(-c4cnn(C)c4)cn4nccc34)c(F)c2)c(=O)n(-c2ccc(F)cc2)c1=O [Example 33, 1-Ethyl-3-(4-fluoro-phenyl)-2,4-dioxo-1,2,3,4-tetrahydro-pyrimidine-5-carboxylic acid {3-fluoro-4-[6-(1-methyl-1H-pyrazol-4-yl)-pyrazolo[1,5-a]pyridin-4-yloxy]-phenyl}-amide]	< 10 nM	< 10 nM
Cc1ccc(C(=O)Nc2ccc(Oc3cc(-c4cnn(C)c4)cn4nccc34)c(F)c2)c(=O)n1-c1ccc(F)cc1 [Example 34, 1-(4-Fluoro-phenyl)-6-methyl-2-oxo-1,2-dihydro-pyridine-3-carboxylic acid {3-fluoro-4-[6-(1-methyl-1H-pyrazol-4-yl)-pyrazolo[1,5-a]pyridin-4-yloxy]-phenyl}-amide]	< 10 nM	< 10 nM
Cc1c(-c2cc(Oc3ccc(NC(=O)c4cccn(-c5ccc(F)cc5)c4=O)cc3F)c3ccnn3c2)cnn1C [Example 39, 1-(4-Fluoro-phenyl)-2-oxo-1,2-dihydro-pyridine-3-carboxylic acid {4-[6-(1,5-dimethyl-1H-pyrazol-4-yl)-pyrazolo[1,5-a]pyridin-4-yloxy]-3-fluoro-phenyl}-amide]	< 10 nM	< 10 nM
O=C(Nc1ccc(Oc2cc(-c3cn[nH]c3)cn3nccc23)c(F)c1)c1cccn(-c2ccc(F)cc2)c1=O [Example 42, 1-(4-Fluoro-phenyl)-2-oxo-1,2-dihydro-pyridine-3-carboxylic acid {3-fluoro-4-[6-(1H-pyrazol-4-yl)-pyrazolo[1,5-a]pyridine-4-yloxy]-phenyl}-amide]	< 10 nM	< 10 nM
Cc1[nH]ncc1-c1cc(Oc2ccc(NC(=O)c3cccn(-c4ccc(F)cc4)c3=O)cc2F)c2ccnn2c1 [Example 44, 1-(4-Fluoro-phenyl)-2-oxo-1,2-dihydro-pyridine-3-carboxylic acid{3-fluoro-4-[6-(5-methyl-1H-pyrazol-4-yl)-pyrazolo[1,5-a]pyridin-4-yloxy]-phenyl}-amide]	< 10 nM	< 10 nM
Cc1ccc(C(=O)Nc2ccc(Oc3cc(-c4cnco4)cn4nccc34)c(F)c2)c(=O)n1-c1ccc(F)cc1 [Example 51, 1-(4-Fluoro-phenyl)-6-methyl-2-oxo-1,2-dihydro-pyridine-3-carboxylic acid [3-fluoro-4-(6-oxazol-5-yl-pyrazolo[1,5-a]pyridin-4-yloxy)-phenyl]-amide]	< 10 nM	< 10 nM
CCn1cc(C(=O)Nc2ccc(Oc3cc(-c4cnsc4)cn4nccc34)c(F)c2)c(=O)n(-c2ccc(F)cc2)c1=O [Example 54, 1-Ethyl-3-(4-fluoro-phenyl)-2,4-dioxo-1,2,3,4-tetrahydro-pyrimidine-5-carboxylic acid[3-fluoro-4-(6-isothiazol-4-yl-pyrazolo[1,5-a]pyridin-4-yloxy)-phenyl]-amide]	< 10 nM	< 10 nM
CC(C)n1cc(C(=O)Nc2ccc(Oc3cc(-c4cnsc4)cn4nccc34)c(F)c2)c(=O)n(-c2ccc(F)cc2)c1=O [Example 55, 3-(4-Fluoro-phenyl)-1-isopropyl-2,4-dioxo-1,2,3,4-tetrahydro-pyrimidine-5-carboxylic acid[3-fluoro-4-(6-isothiazol-4-yl-pyrazolo[1,5-a]pyridin-4-yloxy)-phenyl]-amide]	< 10 nM	< 10 nM
O=C(Nc1ccc(Oc2cc(N3CCOCC3)cn3nccc23)c(F)c1)c1cccn(-c2ccc(F)cc2)c1=O [Example 56, 1-(4-Fluoro-phenyl)-2-oxo-1,2-dihydro-pyridine-3-carboxylic acid[3-fluoro-4-(6-morpholin-4-yl-pyrazolo[1,5-a]pyridin-4-yloxy)-phenyl]-amide]	< 10 nM	< 10 nM
CCn1cc(C(=O)Nc2ccc(Oc3cc(C(=O)N(C)C)cn4nccc34)c(F)c2)c(=O)n(-c2ccc(F)cc2)c1=O [Example 139, 4-(4-{[1-Ethyl-3-(4-fluoro-phenyl)-2,4-dioxo-1,2,3,4-tetrahydro-pyrimidine-5-carbonyl]-amino}-2-fluoro-phenoxy)-pyrazolo[1,5-a]pyridine-6-carboxylic acid dimethylamide]		< 10 nM
CCn1cc(C(=O)Nc2ccc(Oc3cc(NS(C)(=O)=O)cn4nccc34)c(F)c2)c(=O)n(-c2ccc(F)cc2)c1=O [Example 140, 1-Ethyl-3-(4-fluoro-phenyl)-2,4-dioxo-1,2,3,4-tetrahydro-pyrimidine-5-carboxylic acid[3-fluoro-4-(6-methanesulfonylamino-pyrazolo[1,5-a]pyridin-4-yloxy)-phenyl]-amide]		10 to 100 nM
CC(C)n1cc(C(=O)Nc2ccc(Oc3cc(NS(C)(=O)=O)cn4nccc34)c(F)c2)c(=O)n(-c2ccc(F)cc2)c1=O [Example 141, 3-(4-Fluoro-phenyl)-1-isopropyl-2,4-dioxo-1,2,3,4-tetrahydro-pyrimidine-5-carboxylic acid[3-fluoro-4-(6-methanesulfonylamino-pyrazolo[1,5-a]pyridin-4-yloxy)-phenyl]-amide]		10 to 100 nM
CC(=O)Nc1cc(Oc2ccc(NC(=O)c3cn(C(C)C)c(=O)n(-c4ccc(F)cc4)c3=O)cc2F)c2ccnn2c1 [Example 143, 3-(4-Fluoro-phenyl)-1-isopropyl-2,4-dioxo-1,2,3,4-tetrahydro-pyrimidine-5-carboxylic acid[4-(6-acetylamino-pyrazolo[1,5-a]pyridin-4-yloxy)-3-fluoro-phenyl]-amide]		< 10 nM
CCn1cc(C(=O)Nc2ccc(Oc3cc(NC(=O)N(C)C)cn4nccc34)c(F)c2)c(=O)n(-c2ccc(F)cc2)c1=O [Example 146, 1-Ethyl-3-(4-fluoro-phenyl)-2,4-dioxo-1,2,3,4-tetrahydro-pyrimidine-5-carboxylic acid {4-[6-(3,3-dimethyl-urea)-pyrazolo[1,5-a]pyridin-4-yloxy]-3-fluoro-phenyl}-amide]		< 10 nM
CC(C)n1cc(C(=O)Nc2ccc(Oc3cc(NC(=O)N4CCN(C)CC4)cn4nccc34)c(F)c2)c(=O)n(-c2ccc(F)cc2)c1=O [Example 150, 3-(4-Fluoro-phenyl)-1-isopropyl-2,4-dioxo-1,2,3,4-tetrahydro-pyrimidine-5-carboxylic acid(3-fluoro-4-{6-[(4-methyl-piperazine-1-carbonyl)-amino]-pyrazolo[1,5-a]pyridin-4-yloxy}-phenyl)-amide]		10 to 100 nM
Cn1cnc(-c2cc(Oc3ccc(Nc4ncccn4)cc3F)c3ccnn3c2)c1 [Example 152, {3-Fluoro-4-[6-(1-methyl-1H-imidazol-4-yl)-pyrazolo[1,5-a]pyridin-4-yloxy]-phenyl}-pyrimidin-2-yl-amine]		1000 to 10000 nM
Cn1cnc(-c2cc(Oc3ccc(NS(=O)(=O)c4ccc(F)cc4)cc3F)c3ccnn3c2)c1 [Example 153, 4-Fluoro-N-{3-fluoro-4-[6-(1-methyl-1H-imidazol-4-yl)-pyrazolo[1,5-a]pyridin-4-yloxy]-phenyl}-benzenesulfonamide]		1000 to 10000 nM
Cc1ccc(C(=O)Nc2ccc(Oc3cc(Br)cn4nccc34)c(F)c2)c(=O)n1-c1ccc(F)cc1 [Example 157, 1-(4-Fluoro-phenyl)-6-methyl-2-oxo-1,2-dihydro-pyridine-3-carboxylic acid [4-(6-bromo-pyrazolo[1,5-a]pyridin-4-yloxy)-3-fluoro-phenyl]-amide]		10 to 100 nM
